Data from patent US20170266154A1, “METHOD FOR TREATING ALZHEIMER'S DISEASE AND 2, 3-BIPHOSPHOGLYCERATE METABOLISM DISORDER INDUCED” (National Sun Yat-sen University, priority 2016, published 2017).

Biological target: hemoglobin (Homo sapiens, UniProt P68871+P69905)
Assay: hemoglobin-oxygen equilibrium curves (P50 value, oxygen saturation fraction)
Assay type: biochemical
Settings: for effect in combination with 2,3-BPG on hemoglobin modulation: FIG. 2
Excerpt: The oxygen affinity of hemoglobin was represented by P50 value. The P50 value was the required partial pressure of oxygen to achieve 50% oxygen saturation.

[1] = PO2 20 mmHg, 2,3-BPG 1.2 mM, alone or after treating with a phthalide compound (FIG. 7)

Sequence of hemoglobin (P69905 2-142 limits assumed): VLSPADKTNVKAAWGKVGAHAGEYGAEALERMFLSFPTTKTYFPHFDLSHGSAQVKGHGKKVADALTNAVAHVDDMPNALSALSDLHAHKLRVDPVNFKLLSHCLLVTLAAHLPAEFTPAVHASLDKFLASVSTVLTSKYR
Sequence of hemoglobin (P68871 2-147 limits assumed): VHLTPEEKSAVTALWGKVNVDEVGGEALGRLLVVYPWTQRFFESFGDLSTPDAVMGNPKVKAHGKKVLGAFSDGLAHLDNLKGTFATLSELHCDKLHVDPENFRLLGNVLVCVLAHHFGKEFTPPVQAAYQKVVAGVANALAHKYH

oxygen release efficiency [1] [%]	oxygen saturation level / fraction of hemoglobin [1]	P50 value of hemoglobin (about 4 mM 2,3-BPG, no phthalide compound) [mmHg]	oxygen release efficiency of hemoglobin (oxygen partial pressure 20 mmHg, 12 mM 2,3-BPG, hemoglobin without 2,3-BPG 20%) [%]	oxygen saturation fraction of hemoglobin (oxygen partial pressure 20 mmHg, 12 mM 2,3-BPG, hemoglobin without 2,3-BPG about 80%) [%]	2,3-BPG required for hemoglobin to reach a P50 value of 18.8 mmHg (approximately the same or higher) (without or after administration of phthalide compounds (FIG. 6))	SMILES	effect in combination with 2,3-BPG on hemoglobin modulation
						CCC/C=C1\OC(=O)C2=C1CCC=C2 [Z-Ligustilide, Z-ligustilide]	synergistic effect
						CCC/C=C1\OC(=O)C2=C1CC[C@@H](O)[C@@H]2O [Senkyunolide I, senkyunolide I]	synergistic effect
40	about 60%	18.8	65	~35	about 4 mM	O=C(O)C(COP(=O)(O)O)OP(=O)(O)O (centres unmarked) [2,3-BPG, 2,3-bisphosphorglycerate]	
